Measured values from ChEMBL document CHEMBL5614396, “Structure-Activity Relationship Studies in Benzothiadiazoles as Novel Vaccine Adjuvants” (J Med Chem, 2024).
Activity calls are given as the source filed them. The calls are words filed in the database; no cut-off is given here.

Legend:
BMDC [1] = experiment: Vaccine adjuvant activity in Balb/c mouse BMDC assessed as increase in IL-12 production at 10 uM incubated for 20 hrs by ELISA (reference value: 1.35 +/-0.1 ng/ml); type: functional
Mus musculus [2] = experiment: Vaccine adjuvant activity against ovalbumin-immunized BALB/c mouse assessed as increase in anti-OVA specific IgG titer in serum at 200 nmol, im co-administered with ovalbumin on day 0 and day 21 and measured on day 28 by ELISA; type: functional, organism-based; conditions: time 29.0 day
[3] = Cytotoxicity against Balb/c mouse BMDC assessed as cell viability at 10 uM incubated for 20 hrs by MTT assay (reference value: 100 +/-0.6%); type: toxicity, cell-based; conditions: BMDC (bone marrow-derived dendritic cells), read-out: Activity
Mus musculus [4] = experiment: Vaccine adjuvant activity against ovalbumin-immunized BALB/c mouse assessed as induction of antigen-specific Th2 immune responses by measuring increase in anti-OVA specific IgG1 titer in serum at 200 nmol, im co-administered with ovalbumin on day 0 and day 21 and measured on day 28 by ELISA; type: functional, organism-based; conditions: time 29.0 day
BMDC [5] = experiment: Vaccine adjuvant activity in Balb/c mouse BMDC assessed as induction of Ca2+ influx at 10 uM by Fura-2/8-AM dye based fluorescence analysis (reference value: 0%); type: functional
THP-1 = experiment: Vaccine adjuvant activity in human THP-1 cells expressing CD63-Turbo-luciferase and CD9-Emerald green fluorescent protein reporter assessed as extracellular vesicle release by measuring reporter activation at 10 uM incubated for 48 hrs by TurboLuc luciferase based chemiluminescence assay (reference value: 0%); type: functional
[6] = Toxicity in ovalbumin-immunized BALB/c mouse assessed as behavioural changes at 200 nmol, im co-administered with ovalbumin on day 0 and day 21; type: organism-based; conditions: in vivo, 528 h, time 22 day
[7] = Toxicity in ovalbumin-immunized BALB/c mouse assessed as weight loss at 200 nmol, im co-administered with ovalbumin on day 0 and day 21; type: organism-based; conditions: in vivo, 528 h, time 22 day
Mus musculus [8] = experiment: Immunostimulatory activity in BALB/c mouse assessed as increase in serum CXCL-1 level at 1 ug, im and measured after 2 hrs by ELISA; type: functional, organism-based; conditions: dose 1.0 µg
Mus musculus [9] = experiment: Immunostimulatory activity in BALB/c mouse assessed as increase in serum CCL-2 level at 1 ug, im and measured after 24 hrs by multiplex Luminex beads assay; type: functional, organism-based; conditions: dose 1.0 µg
Mus musculus [10] = experiment: Immunostimulatory activity in BALB/c mouse assessed as increase in serum IL-6 level at 1 ug, im and measured after 2 hrs by multiplex Luminex beads assay; type: functional, organism-based; conditions: dose 1.0 µg
Mus musculus [11] = experiment: Immunostimulatory activity in BALB/c mouse assessed as increase in serum CXCL-10 level at 1 ug, im and measured after 6 hrs by multiplex Luminex beads assay; type: functional, organism-based; conditions: dose 1.0 µg
Mus musculus [12] = experiment: Immunostimulatory activity in BALB/c mouse assessed as increase in serum CCL-4 level at 1 ug, im and measured after 24 hrs by multiplex Luminex beads assay; type: functional, organism-based; conditions: dose 1.0 µg
Mus musculus [13] = experiment: Immunostimulatory activity in BALB/c mouse assessed as increase in serum IL-6 level at 1 ug, im and measured after 24 hrs by multiplex Luminex beads assay; type: functional, organism-based; conditions: dose 1.0 µg
Mus musculus [14] = experiment: Immunostimulatory activity in BALB/c mouse assessed as increase in serum CCL-4 level at 1 ug, im and measured after 2 hrs by multiplex Luminex beads assay; type: functional, organism-based; conditions: dose 1.0 µg
Mus musculus [15] = experiment: Immunostimulatory activity in BALB/c mouse assessed as increase in serum CXCL-1 level at 1 ug, im and measured after 24 hrs by ELISA; type: functional, organism-based; conditions: dose 1.0 µg
Mus musculus [16] = experiment: Immunostimulatory activity in BALB/c mouse assessed as increase in serum CCL-2 level at 1 ug, im and measured after 2 hrs by multiplex Luminex beads assay; type: functional, organism-based; conditions: dose 1.0 µg
Mus musculus [17] = experiment: Immunostimulatory activity in BALB/c mouse assessed as increase in serum CXCL-1 level at 200 nmol, im and measured after 24 hrs by ELISA; type: functional, organism-based
Mus musculus [18] = experiment: Immunostimulatory activity in BALB/c mouse assessed as increase in serum CXCL-1 level at 200 nmol, im and measured after 2 to 6 hrs by ELISA; type: functional, organism-based; conditions: time 2-6 hrs

SMILES | Activity (BMDC [1]) [ng/mL] | Activity (Mus musculus [2]) | viability at 20 h, 10 µM [3] [%] | Activity (Mus musculus [4]) | Activity (BMDC [5]) [%] | Activity (THP-1) [%] | Activity [6] | Activity [7] | Activity (Mus musculus [8]) | Activity (Mus musculus [9]) | Activity (Mus musculus [10]) | Activity (Mus musculus [11]) | Activity (Mus musculus [12]) | Activity (Mus musculus [13]) | Activity (Mus musculus [14]) | Activity (Mus musculus [15]) | Activity (Mus musculus [16]) | Activity (Mus musculus [17]) | Activity (Mus musculus [18])
CCOC(=O)c1c(NS(=O)(=O)c2cccc3n[se]nc23)sc(C)c1C | 3.11 | Active | 109 | Active | 147.5 | 210.4 | Non-Toxic | Non-Toxic |  |  |  |  |  |  |  |  |  |  | 
CCCCCCCCCCCCCC(=O)O[C@H](CCCCCCCCCCC)CC(=O)N[C@H]1[C@H](OC[C@H]2O[C@H](O)[C@H](NC(=O)C[C@H](O)CCCCCCCCCCC)[C@@H](OC(=O)C[C@H](O)CCCCCCCCCCC)[C@@H]2O)O[C@H](CO)[C@@H](OP(=O)(O)O)[C@@H]1OC(=O)C[C@@H](CCCCCCCCCCC)OC(=O)CCCCCCCCCCCCC |  |  |  |  |  |  |  |  | Active | inactive | Active | Active | inactive | inactive | Active | inactive | Active |  | 
CCOC(=O)c1c(NC(=O)c2cccc3nsnc23)sc(C)c1C | 1.37 |  | 59.1 |  | -5.4 | -0.4 |  |  |  |  |  |  |  |  |  |  |  | inactive | Active
CCOC(=O)c1c(NS(=O)(=O)c2cccc3ccccc23)sc(C)c1C | 1.37 |  | 111 |  | -14.1 | 5.2 | Non-Toxic | Non-Toxic |  |  |  |  |  |  |  |  |  |  | 
CCOC(=O)c1c(NS(=O)(=O)c2ccccc2)sc(C)c1C | 1.16 | inactive | 102 |  | -10.9 | 0.7 |  |  |  |  |  |  |  |  |  |  |  |  | 
CCOC(=O)c1c(NS(=O)(=O)c2cccc3nccnc23)sc(C)c1C | 4.12 | Active | 181 | Active | 122 | 113.3 | Non-Toxic | Non-Toxic |  |  |  |  |  |  |  |  |  |  | 
Cc1sc(NS(=O)(=O)c2cccc3nsnc23)c(-c2nc(C#N)no2)c1C | 1.59 | inactive | 97.6 |  | -7 | 1.5 | Non-Toxic | Non-Toxic |  |  |  |  |  |  |  |  |  |  | 
CCOC(=O)c1c(NS(=O)(=O)c2cccc3nsnc23)sc(-c2ccccc2)c1C | 3.79 | Active | 136 | Active | 115.7 | 338.9 | Non-Toxic | Non-Toxic |  |  |  |  |  |  |  |  |  | inactive | Active
CCOC(=O)c1c(NS(=O)(=O)c2cccc3nsnc23)sc(C)c1C | 1.78 | Active | 114 |  | 100 | 100 | Non-Toxic | Non-Toxic |  |  |  |  |  |  |  |  |  | inactive | Active
Cc1sc(NS(=O)(=O)c2cccc3nsnc23)c(C(=O)OC2CCCCC2)c1C | 3.08 | Active | 102 | Active | 177.8 | 213 | Non-Toxic | Non-Toxic |  |  |  |  |  |  |  |  |  | inactive | Active
CCc1noc(-c2c(NS(=O)(=O)c3cccc4nsnc34)sc(C)c2C)n1 | 1.71 |  | 65.9 |  | -3.1 | 0.4 |  |  |  |  |  |  |  |  |  |  |  |  | 
